According to patent US20070270521A1, “Transition metal compound, polymerization-initiator system comprising the same, and process for producing polymer” (Sumitomo Chemical Company, Limited, priority 2006, published 2007):

What was measured:
Type in all cases: physicochemical
[1] = Saturated solubility of the transition metal compound in a solvent at 23° C.; conditions: amount dissolved in 10 mL of saturated solution (Note-1)
[2] = Color change of the reaction mixture before and after polymerization (stability during polymerization); conditions: methyl acrylate/ethylene copolymerization in toluene, 150° C., 4 MPa
Method: A 400 mL stainless-steel autoclave was dried sufficiently, and a gas in the autoclave was displaced with a nitrogen gas. There was put in the autoclave, at ordinary temperature and atmospheric pressure, 1.61 g of [dodecyl(tetramethyl)cyclopentadienyl]iron carbonyl dimer (transition metal compound) obtained in Reference Example 2, and then, 18 mL of methyl acrylate manufactured by Tokyo Chemical Industry Co., Ltd. and 18 mL of purified toluene as a polymerization solvent were put therein using a syringe. After heating the mixture up to 150° C., ethylene (olefin) was pressed into the autoclave up to its pressure of 4.0 MPa. Finally, 2.0 mL of a toluene solution of 2-iodobutane (manufactured by Tokyo Chemical Industry Co., Ltd.) having a concentration of 1.0 mol/L was put therein, thereby copolymerizing methyl acrylate and ethylene at 150° C. for 10 minutes. The copolymerization reaction mixture was subjected to distillation under reduced pressure to distil away the remaining monomer (methyl acrylate) and the solvent (toluene). The resultant solid was dried for three hours in a vacuum dryer (80° C.), thereby obtaining 8.7 g of a random copolymer of methyl acrylate and ethylene. Both the original mixture before copolymerization and the copolymerization reaction mixture were red. […]

[3] = Polymer dipped in heptane (transfer of the transition metal compound to heptane); conditions: poly(butyl acrylate) made at 60° C. in toluene, containing the transition metal compound
Description: Its molecular weight distribution (Mw/Mn) of 3.2 was a single peak distribution. When dipping said polymer in heptane, the transition metal compound contained in said polymer was transferred to heptane, and said polymer was decolorized from red to very pale yellow.
Its molecular weight distribution (Mw/Mn) of 3.9 was a single peak distribution. When dipping said polymer in heptane, the transition metal compound contained in said polymer was hardly transferred to heptane, and said polymer remained red and was not decolorized.

Saturated solubility ([1]; hexane) [mmol] | Saturated solubility ([1]; toluene) [mmol] | Color change of the reaction mixture before and after polymerization [2] | Polymer dipped in heptane [3] | Compound
0.8 | 19.3 |  |  | Cc1c(C)c(C)[c-](C)c1C.Cc1c(C)c(C)[c-](C)c1C.[C-]#[O+].[C-]#[O+].[C-]#[O+].[C-]#[O+].[Fe+][Fe+] [[(pentamethyl)cyclopentadienyl]iron carbonyl dimer]
2.4 | 167.3 |  |  | (cyclopentadienyl)iron carbonyl dimer
131.4 |  | non-changed | decolorized | [dodecyl(tetramethyl)cyclopentadienyl]iron carbonyl dimer
96.8 |  |  |  | [octyl(tetramethyl)cyclopentadienyl]iron carbonyl dimer
